These results are taken from paper PMC4710668, “Bioactivation of food genotoxicants 5-hydroxymethylfurfural and furfuryl alcohol by sulfotransferases from human, mouse and rat: a comparative study” (Archives of Toxicology, 2014).

Data set [1] deals with S. typhimurium TA100 strains expressing different SULT forms. To be noted: ref Glatt et al. [2012]; cited from earlier work.
In data set [2] the test system is female B6C3F1 mice. The arrangement: method as in National Toxicology Program [2008]. To be noted: oral 188 mg HMF/kg for 104 weeks, ref National Toxicology Program [2008]; cited from earlier work.
Data set [3] relates to female B6C3F1 mice. Nature of the data set: Two-year bioassay of HMF, oral administration. The format is in vivo. As to conditions: 70 kg human body weight, uptake 4–30 mg per person.
The next data set deals with rSult2a4. Nature of the data set: FFA sulfoconjugation assay (N6-MF-A formation with adenosine as scavenger). It counts as biochemical, rat. How it is done: Cytosolic fractions containing individual SULT forms were prepared from transgenic S. typhimurium TA1538. Table S1 in the Supplementary Material provides a summary of the thirty SULTs used in the current study together with references describing the cloning of the respective S. typhimurium TA1538 strains. The expressed SULT forms are denoted with the prefixes h, m and r for human, mouse and rat enzymes, respectively. Bacteria were grown in Luria Broth medium containing ampicillin (100 µg/ml) by stirring for 8 h at 200 revolutions/min at 37 °C. The bacterial suspensions were centrifuged at 5,000 g for 10 min. The sediments were washed twice with 25 ml of 10 mM potassium phosphate buffer (pH 7.4)/50 mM potassium chloride (KCP buffer) and centrifuged again. The pellets were taken up in 800 µl KCP buffer and sonicated thrice for 15 s with 30 s pauses in between. The soluble fraction was attained by centrifuging for 1 h at 100,000 g. The supernatants (in the following termed cytosolic preparations) were frozen at −80 °C. The protein concentrations were determined according to a bicinchoninic acid (BCA) assay protocol. […]
The ribonucleoside adduct N ^6-((furan-2-yl)methyl)-adenosine (N ^6-MF-A) was analyzed by isotope-dilution UPLC-MS/MS with the same system described above using a HSS T3 column (1.8 µm, 2.1 × 100 mm, Waters). […] The fragmentations of N ^6-MF-A into the aglycone cation [N ^6-((furan-2-yl)methyl)-adenine-H]^+ (m/z = 348.1 → 216.1), the cleavage of the 2-methylfuranyl cation (m/z = 348.1 → 81.0) and the release of [N ^6-methyl-adenine-H]^+ (m/z = 348.1 → 148.0) were monitored together with the corresponding fragmentations of the isotope-labeled internal standard [^15N5]N ^6-MF-A for the formation of the aglycone (m/z = 353.1 → 221.1), the 2-methylfuran cation (m/z = 353.1 → 81.0) and ^15N5-labeled N ^6-methyl-adenine (m/z = 353.1 → 153.0). The N ^6-MF-A content of the incubation mixture was calculated from the ratio of peak areas resulting from the total ion current of all three MRM signals of the analyte. […]

The test system of another data set is male B6C3F1 mice. To be noted: 32 ppm FFA in the air (equivalent to 60 mg FFA/kg bw/day), ref National Toxicology Program [1999]; cited from earlier work.
For a further data set, the system named is mSult2a3. In words: FFA sulfoconjugation assay (N6-MF-A formation with adenosine as scavenger). The format is biochemical, mouse. On the procedure:
(§1) Cytosolic fractions containing individual SULT forms were prepared from transgenic S. typhimurium TA1538. Table S1 in the Supplementary Material provides a summary of the thirty SULTs used in the current study together with references describing the cloning of the respective S. typhimurium TA1538 strains. The expressed SULT forms are denoted with the prefixes h, m and r for human, mouse and rat enzymes, respectively. Bacteria were grown in Luria Broth medium containing ampicillin (100 µg/ml) by stirring for 8 h at 200 revolutions/min at 37 °C. The bacterial suspensions were centrifuged at 5,000 g for 10 min. The sediments were washed twice with 25 ml of 10 mM potassium phosphate buffer (pH 7.4)/50 mM potassium chloride (KCP buffer) and centrifuged again. The pellets were taken up in 800 µl KCP buffer and sonicated thrice for 15 s with 30 s pauses in between. The soluble fraction was attained by centrifuging for 1 h at 100,000 g. The supernatants (in the following termed cytosolic preparations) were frozen at −80 °C. The protein concentrations were determined according to a bicinchoninic acid (BCA) assay protocol. The SULT concentrations in the cytosolic preparations were estimated after electrophoretic separation and immunodetection using inclusion bodies of different SULT forms as standards (Teubner et al. [2007]). The preparation of SULT inclusion bodies and the immunodetection of SULTs is described in the Supplementary Material, which also contains a representative immunoblot of different amounts of rSult1a1standard and a cytosolic preparation of S. typhimurium expressing rSult1a1 (Fig. S1).
(§2) The reaction mixtures were prepared as described for HMF. In addition, they contained 10 mM adenosine as a nucleophilic scavenger. Following incubation for 20 min at 37 °C, sulfoconjugation reactions were stopped by adding 100 µl cold methanol containing 175 fmol of [^15N5]N ^6-MF-A as the internal standard, mixed and centrifuged at 15,000 g for 10 min. The clear supernatants were subjected to UPLC-MS/MS analyses. Incubations were performed as quadruplicates. At higher concentrations, FFA reacts spontaneously with adenosine at low, but detectable, levels. To correct for the SULT-independent adduct formation, mixtures with SULT-deficient cytosols were carried along simultaneously in duplicate. Controls were subtracted from the experimental samples.
(§3) The ribonucleoside adduct N ^6-((furan-2-yl)methyl)-adenosine (N ^6-MF-A) was analyzed by isotope-dilution UPLC-MS/MS with the same system described above using a HSS T3 column (1.8 µm, 2.1 × 100 mm, Waters). Samples of 8 µl were eluted with 10 mM ammonium bicarbonate buffer, pH 8.0 (A) and methanol (B) using an 6-min gradient from 98 % solvent A to 15 % solvent A at 0.35 ml/min flow rate (Yin et al. [2013]). The electrospray interface of the mass spectrometer operated in the positive ion mode. The fragmentations of N ^6-MF-A into the aglycone cation [N ^6-((furan-2-yl)methyl)-adenine-H]^+ (m/z = 348.1 → 216.1), the cleavage of the 2-methylfuranyl cation (m/z = 348.1 → 81.0) and the release of [N ^6-methyl-adenine-H]^+ (m/z = 348.1 → 148.0) were monitored together with the corresponding fragmentations of the isotope-labeled internal standard [^15N5]N ^6-MF-A for the formation of the aglycone (m/z = 353.1 → 221.1), the 2-methylfuran cation (m/z = 353.1 → 81.0) and ^15N5-labeled N ^6-methyl-adenine (m/z = 353.1 → 153.0). The N ^6-MF-A content of the incubation mixture was calculated from the ratio of peak areas resulting from the total ion current of all three MRM signals of the analyte. For the fragmentation of N ^6-MF-A ([^15N5]N ^6-MF-A), collision energies were 20, 25 and 35 eV for the transitions m/z = 348.1 → 216.1 (m/z = 353.1 → 221.1), m/z = 348.1 → 148.0 (m/z = 353.1 → 153.0) and m/z = 348.1 → 81.0 (m/z = 353.1 → 81.0), respectively. […]

Another data set deals with mSult5a1. The data set is described as above. The format is biochemical, mouse. How it is done: as §1, §2, §3

`O=Cc1ccc(CO)o1` [HMF, 5-Hydroxymethylfurfural]: in data set [1], the “mutagenicity in SULT-expressing strains” value was “small, were detectable in those strains that expressed hSULT1A1, 1A3 and 1C2 as well as mSult1a1 and 1d1”. For the same compound, in the data set with female B6C3F1 mice [2], the carcinogenic effect entry is “increased incidences of hepatocellular adenomas”. Besides, the “margin between carcinogenic dose (188 mg/kg) and human HMF uptake” value with female B6C3F1 mice [3] was 440- to 3,300 fold.

For `OCc1ccco1` [FFA, furfuryl alcohol], the “Rate of N6-MF-A formation” value in the data set with rSult2a4 (0.1 mM FFA) is on record as less than 18 fmol N ^6-MF-A/mg/min; in the data set with rSult2a4 (1 mM FFA), less than 20 fmol N ^6-MF-A/mg/min; with rSult2a4 (10 mM FFA) it was less than 44 fmol N ^6-MF-A/mg/min; in the data set with mSult2a3 (0.1 mM FFA) it was less than 18 fmol N ^6-MF-A/mg/min; with mSult2a3 (1 mM FFA), less than 20 fmol N ^6-MF-A/mg/min; in the data set on mSult2a3 (10 mM FFA), less than 44 fmol N ^6-MF-A/mg/min. Besides, the “Rate of N6-MF-A formation” value was less than 18 fmol N ^6-MF-A/mg/min in the data set with mSult5a1 (0.1 mM FFA), less than 20 fmol N ^6-MF-A/mg/min in the data set on mSult5a1 (1 mM FFA) and less than 44 fmol N ^6-MF-A/mg/min in the data set on mSult5a1 (10 mM FFA). In data set [1], the “mutagenicity in SULT-expressing strains” value is “highest mutagenicity of FFA was observed in bacteria expressing hSULT1A1, 1C2 and mSult1a1”. For the same compound, in the data set with male B6C3F1 mice, the carcinogenic effect result is listed as “induced renal tubule neoplasms”.
